System: murine peritoneal macrophages
Experiment: Secretion of nitric oxide by murine peritoneal macrophages in vitro (Griess reaction)
Format: cell-based, ICR mice
Conditions: 24 hours
Protocol: Ten ICR mice were injected intraperitoneally with 1 ml 3% w/v aqueous thioglycolate. After 3 days, the mice were sacrificed by cervical dislocation. Macrophages were harvested by opening the peritoneum and lavaging the space with PBS. The PBS lavage from each sacrificed mouse was pooled. […] The cells were allowed to adhere on the bottom of the wells of microtiter plates for 1 hr at 37° C. in a humidified atmosphere of […] and 5% CO2. Next, the supernatant in the wells was carefully removed. […] The contacted cells were incubated at 37° C. in a humidified atmosphere of […] and 5% CO2 for 24 hours. At 24 hours, the amount of nitrate present in the cell-free culture medium was determined by the Griess reaction. (See Green L. C. et al, Analysis of nitrate, nitrite, and [15N] nitrate in biological fluids, Anal. Biochem., 1982, 126:131-138.) A 150 μl aliquot of cell-free culture medium was pipetted from each microtiter plate well, and reacted with 50 μl of Griess reagent for 10 minutes in a fresh microtiter plate well. Absorbance of the aliquot was then measured at 540 nm using a microplate reader (BTI, ELX 800).

With lipopolysaccharide [LPS] the “Increased secretion of nitric oxide, dose dependence” value was “dose-dependent at low LPS concentrations”.

From patent US8158750B2, “Preparation and standardization of immunomodulatory peptide-linked glucans with verifiable oral absorbability from coriolus versicolor” (The Chinese University of Hong Kong, priority 2002, dated 2012)
